According to patent US5385908A, “Hindered esters of rapamycin” (American Home Products Corporation, priority 1993, dated 1995):
Where a name gives a salt, the structure may show the parent alone. Read-outs that look alike come from different tables or passages of the source.

What was measured:
[1] = system: cells from the thymus of normal BALB/c mice (lymphocyte proliferation); test: comitogen-induced thymocyte proliferation procedure (LAF); type: cell-based; details: read-out: LAF IC50
Procedure: (§1) Immunosuppressive activity for representative compounds of this invention was evaluated in an in vitro standard pharmacological test procedure to measure lymphocyte proliferation (LAF) and in three in vivo standard pharmacological test procedures. The pinch skin graft test procedure measures the immunosuppressive activity of the compound tested as well as the ability of the compound tested to inhibit or treat transplant rejection. The adjuvant arthritis standard pharmacological test procedure, which measures the ability of the compound tested to inhibit immune mediated inflammation. The adjuvant arthritis test procedure is a standard pharmacological test procedure for rheumatoid arthritis. Representative compounds of this invention were also evaluated in a heart allograft standard pharmacological test procedure which measures immunosuppressive activity of the compound tested as well as the ability of the compound tested to inhibit or treat transplant rejection. The procedures for these standard pharmacological test procedures are provided below.
The comitogen-induced thymocyte proliferation procedure (LAF) was used as an in vitro measure of the immunosuppressive effects of representative compounds. Briefly, cells from the thymus of normal BALB/c mice are cultured for 72 hours with PHA and IL-1 and pulsed with tritiated thymidine during the last six hours. Cells are cultured with and without various concentrations of rapamycin, cyclosporin A, or test compound. Cells are harvested and incorporated radioactivity is determined. Inhibition of lymphoproliferation is assessed as percent change in counts per minute from non-drug treated controls. For each compound evaluated, rapamycin was also evaluated for the purpose of comparison. An IC50 was obtained for each test compound as well as for rapamycin. […] The results obtained are provided as an IC50.

pinch skin graft = pinch skin graft survival test procedure; type: in vivo, male BALB/c donors transplanted to male C3H(H-2K) recipients; details: 4 mg/kg, intraperitoneally or orally; mean ± S.D.; untreated rejected within 6-7 days
Procedure: as §1
Representative compounds of this invention were also evaluated in an in vivo test procedure designed to determine the survival time of pinch skin graft from male BALB/c donors transplanted to male C3 H(H-2K) recipients. The method is adapted from Billingham R. E. and Medawar P. B., J. Exp. Biol. 28:385-402, (1951 ). Briefly, a pinch skin graft from the donor was grafted on the dorsum of the recipient as a allograft, and an isograft was used as control in the same region. The recipients were treated with either varying concentrations of test compounds intraperitoneally or orally. Rapamycin was used as a test control. Untreated recipients serve as rejection control. The graft was monitored daily and observations were recorded until the graft became dry and formed a blackened scab. This was considered as the rejection day. The mean graft survival time (number of days±S.D.) of the drug treatment group was compared with the control group. […] Results are expressed as the mean survival time in days. Untreated (control) pinch skin grafts are usually rejected within 6-7 days. Compounds were tested using a dose of 4 mg/kg.

[2] = system: immune mediated inflammation (uninjected hind paw); test: adjuvant arthritis standard pharmacological test procedure; type: in vivo, male inbread Wistar Lewis rats; details: for Percent change in adjuvant arthritis versus control: 2 mg/kg oral
Procedure: as §1
The adjuvant arthritis standard pharmacological test procedure measures the ability of test compounds to prevent immune mediated inflammation and inhibit or treat rheumatoid arthritis. The following briefly describes the test procedure used. A group of rats (male inbread Wistar Lewis rats) are pre-treated with the compound to be tested (1 h prior to antigen) and then injected with Freud's Complete Adjuvant (FCA) in the right hind paw to induce arthritis. The rats are then orally dosed on a Monday, Wednesday, Friday schedule from day 0-14 for a total of 7 doses. Both hind paws are measured on days 16, 23, and 30. The difference in paw volume (mL) from day 16 to day 0 is determined and a percent change from control is obtained. […] The right hind paw inflammation, on the other hand, is caused by nonspecific inflammation. Compounds were tested at a dose of 2 mg/kg.

heart allograft = test: heterotropic heart allograft standard pharmacological test procedure; type: in vivo, BN rat neonate donors, male Lewis rat recipients; details: untreated rejected in about 9-10 days
Procedure: as §1
The ability of the compounds of this invention to induce immunosuppression and inhibit or treat transplantation rejection was evaluated in a heterotropic heart allograft standard pharmacological test procedure that emulates transplantation rejection that occurs in humans. The following briefly describes the procedure that was used. […]

Candida albicans = details: in vitro and in vivo; cited from earlier work
[3] = system: experimental allergic encephalomyelitis; details: model for multiple sclerosis; cited from earlier work
IgE-like antibodies = details: in vivo; cited from earlier work
[4] = Mus musculus, Lymphocyte, PHA and IL-1, 72 hours culture, tritiated thymidine last six hours

Row | SMILES | IC50 [1, 4] [nM] | Skin graft survival (mean survival time) (pinch skin graft) [days] | Percent change in adjuvant arthritis versus control ([2]; day 16) [%] | further results
1 | CO[C@H]1C[C@@H]2CC[C@@H](C)[C@@](O)(O2)C(=O)C(=O)N2CCCC[C@H]2C(=O)O[C@H]([C@H](C)C[C@@H]2CC[C@@H](OC(=O)C(C)(C)Cc3cccnc3)[C@H](OC)C2)CC(=O)[C@H](C)/C=C(\C)[C@@H](O)[C@@H](OC)C(=O)[C@H](C)C[C@H](C)/C=C/C=C/C=C/1C [Example 2, Rapamycin 42-ester with 2,2-dimethyl-3-(3-pyridinyl) propionic acid] | 0.83 | 13.6 ± 0.6 | -62 | Heart allograft (mean graft survival time) (heart allograft; i.p., 300 μg/day): 29 days; Heart allograft (mean graft survival time) (heart allograft; p.o.): 11.5 days
2 | CO[C@H]1C[C@@H]2CC[C@@H](C)[C@@](O)(O2)C(=O)C(=O)N2CCCC[C@H]2C(=O)O[C@H]([C@H](C)C[C@@H]2CC[C@@H](OC(=O)C(C)(C)Cc3cccnc3)[C@H](OC)C2)CC(=O)[C@H](C)/C=C(\C)[C@@H](O)[C@@H](OC)C(=O)[C@H](C)C[C@H](C)/C=C/C=C/C=C/1C [Example 3, Rapamycin 42-ester with 2,2-dimethyl-3-(3-pyridinyl) propionic acid hydrochloride salt] | – | – | – | IC50 ([1]; PHA and IL-1, 72 hours culture, tritiated thymidine last six hours, hydrochloride salt): 1.03 nM; Percent change in adjuvant arthritis versus control ([2]; day 16, hydrochloride salt): -73%
3 | CO[C@H]1C[C@@H]2CC[C@@H](C)[C@@](O)(O2)C(=O)C(=O)N2CCCC[C@H]2C(=O)O[C@H]([C@H](C)C[C@@H]2CC[C@@H](OC(=O)C(C)(C)CCc3ccccn3)[C@H](OC)C2)CC(=O)[C@H](C)/C=C(\C)[C@@H](O)[C@@H](OC)C(=O)[C@H](C)C[C@H](C)/C=C/C=C/C=C/1C [Example 5, Rapamycin 42-ester with 2,2-dimethyl-4-(2-pyridinyl) butyric acid] | 0.58 | – | -75 | –
4 | CO[C@H]1C[C@@H]2CC[C@@H](C)[C@@](O)(O2)C(=O)C(=O)N2CCCC[C@H]2C(=O)O[C@H]([C@H](C)C[C@@H]2CC[C@@H](OC(=O)C(C)(C)CCCc3cccnc3)[C@H](OC)C2)CC(=O)[C@H](C)/C=C(\C)[C@@H](O)[C@@H](OC)C(=O)[C@H](C)C[C@H](C)/C=C/C=C/C=C/1C [Example 6, Rapamycin 42-ester with 2,2-dimethyl-5-(3-pyridinyl) pentanoic acid] | 3 | 12.50 ± 0.55 | -45 | –
5 | CO[C@H]1C[C@@H]2CC[C@@H](C)[C@@](O)(O2)C(=O)C(=O)N2CCCC[C@H]2C(=O)O[C@H]([C@H](C)C[C@@H]2CC[C@@H](OC(=O)C(C)(C)Cc3ccccn3)[C@H](OC)C2)CC(=O)[C@H](C)/C=C(\C)[C@@H](O)[C@@H](OC)C(=O)[C@H](C)C[C@H](C)/C=C/C=C/C=C/1C [Example 7, Rapamycin 42-ester with 2,2-dimethyl-3-(2-pyridinyl) propionic acid] | 0.6 | – | -78 | –
6 | CO[C@H]1C[C@@H]2CC[C@@H](C)[C@@](O)(O2)C(=O)C(=O)N2CCCC[C@H]2C(=O)O[C@H]([C@H](C)C[C@@H]2CC[C@@H](OC(=O)C(C)(C)CCc3cccnc3)[C@H](OC)C2)CC(=O)[C@H](C)/C=C(\C)[C@@H](O)[C@@H](OC)C(=O)[C@H](C)C[C@H](C)/C=C/C=C/C=C/1C [Example 8, Rapamycin 42-ester with 2,2-dimethyl-4-(3-pyridinyl) butyric acid] | 1.2 | – | -50 | –
7 | CO[C@H]1C[C@@H]2CC[C@@H](C)[C@@](O)(O2)C(=O)C(=O)N2CCCC[C@H]2C(=O)O[C@H]([C@H](C)C[C@@H]2CC[C@@H](OC(=O)C(C)(C)Cc3ccncc3)[C@H](OC)C2)CC(=O)[C@H](C)/C=C(\C)[C@@H](O)[C@@H](OC)C(=O)[C@H](C)C[C@H](C)/C=C/C=C/C=C/1C [Example 9, Rapamycin 42-ester with 2,2-dimethyl-3-(4-pyridinyl) propionic acid] | 0.84 | 11.17 ± 1.47 | -73 | –
8 | CO[C@H]1C[C@@H]2CC[C@@H](C)[C@@](O)(O2)C(=O)C(=O)N2CCCC[C@H]2C(=O)O[C@H]([C@H](C)C[C@@H]2CC[C@@H](OC(=O)C3(C)CCN(C)CC3)[C@H](OC)C2)CC(=O)[C@H](C)/C=C(\C)[C@@H](O)[C@@H](OC)C(=O)[C@H](C)C[C@H](C)/C=C/C=C/C=C/1C [Example 12, Rapamycin 42-ester with 1,4-dimethylpiperidine-4-carboxylic acid] | 0.58 | 12.83 ± 1.47 | -75 | –
9 | CO[C@H]1C[C@@H]2CC[C@@H](C)[C@@](O)(O2)C(=O)C(=O)N2CCCC[C@H]2C(=O)O[C@H]([C@H](C)C[C@@H]2CC[C@@H](OC(=O)C3(C)CCCCN3C(=O)c3ccccc3)[C@H](OC)C2)CC(=O)[C@H](C)/C=C(\C)[C@@H](O)[C@@H](OC)C(=O)[C@H](C)C[C@H](C)/C=C/C=C/C=C/1C (stereo partly shown) [Example 13, Rapamycin 42-ester with 1-benzoyl-2-methyl-piperidine-2-carboxylic acid] | 2.9 | – | – | –
10 | CO[C@H]1C[C@@H]2CC[C@@H](C)[C@@](O)(O2)C(=O)C(=O)N2CCCC[C@H]2C(=O)O[C@H]([C@H](C)C[C@@H]2CC[C@@H](O)[C@H](OC)C2)CC(=O)[C@H](C)/C=C(\C)[C@@H](O)[C@@H](OC)C(=O)[C@H](C)C[C@H](C)/C=C/C=C/C=C/1C [rapamycin] | – | – | – | IC50 ([1]; Mus musculus, Lymphocyte): 0.5 to 1.9 nM; less immune induced inflammation than control rats ([2]; rapamycin treated rats, day 16): 70-90%; antifungal activity (in words) (Candida albicans): antifungal activity, particularly against Candida albicans, both in vitro and in vivo; effect in experimental allergic encephalomyelitis model (in words) [3]: effective in the experimental allergic encephalomyelitis model; inhibition of formation of IgE-like antibodies (in words) (IgE-like antibodies): effectively inhibited the formation of IgE-like antibodies
